Measurements taken from patent publication US7683176B2, “Triazolyl pyridyl benzenesulfonamides” (ChemoCentryx, Inc., priority 2006, dated 2010).

Molecular target: T1, CCR9 (Homo sapiens, UniProt P51686)
T1 construct: chemokine expressing cells (such as THP-1 cells for CCR2 assay or MOLT-4 cells for CCR9 assay); host or cells: MOLT-4
T1 sequence (P51686 1-369): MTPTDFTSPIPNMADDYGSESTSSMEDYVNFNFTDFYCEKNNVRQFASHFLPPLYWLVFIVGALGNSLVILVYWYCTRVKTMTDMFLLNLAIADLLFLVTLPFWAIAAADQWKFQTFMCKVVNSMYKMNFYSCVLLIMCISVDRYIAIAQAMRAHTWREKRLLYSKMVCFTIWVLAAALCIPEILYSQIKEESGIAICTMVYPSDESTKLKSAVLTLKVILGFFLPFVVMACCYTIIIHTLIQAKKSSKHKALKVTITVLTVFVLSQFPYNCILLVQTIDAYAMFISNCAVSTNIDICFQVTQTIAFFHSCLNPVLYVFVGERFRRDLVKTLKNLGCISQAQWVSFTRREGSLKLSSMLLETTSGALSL
Assay: CCR9 activity in one of the chemotaxis, binding or calcium mobilization assays
Type: cell-based
Conditions: binding or calcium mobilization assays (MOLT-4 cells, TECK)
Protocol: THP-1 cells and MOLT-4 cells were obtained from the American Type Culture Collection (Manassas, Va.) and cultured in RPMI tissue culture medium supplemented with 10% fetal calf serum (FCS) in a humidified 5% CO2 incubator at 37° C. Recombinant human chemokine proteins MCP-1 and TECK were obtained from R&D Systems (Minneapolis, Minn.). ^125I-labeled MCP-1 protein was obtained from Amersham (Piscataway, N.J.). ChemoTX® chemotaxis microchambers were purchased from Neuro Probe (Gaithersburg, Md.). CyQUANT® cell proliferation kits were purchased from Molecular Probes (Eugene, Oreg.). Calcium indicator dye Fluo-4 AM was purchased from Molecular Devices (Mountain View, Calif.).
Conventional migration assay was used to determine the efficacy of potential receptor antagonists in blocking migration mediated through chemokines (such as CCR2 or CCR9). This assay was routinely performed using the ChemoTX® microchamber system with a 5-μm pore-sized polycarbonate membrane. To begin such an assay, chemokine expressing cells (such as THP-1 cells for CCR2 assay or MOLT-4 cells for CCR9 assay) were harvested by centrifugation of cell suspension at 1000 RPM on a GS-6R Beckman centrifuge. The cell pellet was resuspended in chemotaxis buffer (HBSS with 0.1% BSA) at 10×10^6 cells/mL for CCR2 assay (5×10^6 cells/mL for CCR9 assay). Test compounds at desired concentrations were prepared from 10 mM stock solutions by serial dilutions in chemotaxis buffer. An equal volume of cells and compounds were mixed and incubated at room temperature for 15 minutes. Afterwards, 20 μL of the mixture was transferred onto the porous membrane of a migration microchamber, with 29 μL of chemokine ligand (0.1 nM chemokine MCP-1 protein for CCR2 assay or […] chemokine TECK protein for CCR9 assay) placed at the lower chamber. Following an incubation at 37° C. (90-minute for CCR2; 150-minute for CCR9), during which cells migrated […] the chemokine gradient, the assay was terminated by removing the cell drops from atop the filter. To quantify cells migrated across the membrane, 5 μL of 7× CyQUANT® solution was added to each well in the lower chamber, and the fluorescence signal measured on a Spectrafluor Plus fluorescence plate reader (TECAN, Durham, N.C.). The degree of inhibition was determined by comparing migration signals between compound-treated and untreated cells. IC50 calculation was further performed by non-linear squares regression analysis using Graphpad Prism (Graphpad Software, San Diego, Calif.).
Calcium flux assay measures an increase in intracellular calcium following ligand-induced receptor activation. In the screen of chemokine antagonists, it was used as a secondary assay carried out on a FLIPR® machine (Molecular Devices, Mountain View, Calif.). To begin an assay, chemokine expressing cells (such as THP-1 cells for CCR2 assay or MOLT-4 cells for CCR9 assay) were harvested by centrifugation of cell suspension, and resuspended to 1.5×10^6 cells/mL in HBSS (with 1% fetal calf serum). Cells were then labeled with a calcium indicator dye Fluo-4 AM for 45 minutes at 37° C. with gentle shaking. Following incubation, cells were pelletted, washed once with HBSS and resuspended in the same buffer at a density of 1.6×10^6 cells/mL. One hundred microliters of labeled cells were mixed with 10 μL of test compound at the appropriate concentrations on an assay plate. Chemokine protein (MCP-1 at a final concentration of 0.1 nM for CCR2 assay or TECK at a final concentration of 25 nM for CCR9 assay) to activate the receptor. The degree of inhibition was determined by comparing calcium signals between compound-treated and untreated cells. IC50 calculations were further performed by non-linear squares regression analysis using Graphpad Prism (Graphpad Software, San Diego, Calif.).

Compound | IC50
Cc1nnc(-c2ncc(Cl)cc2NS(=O)(=O)c2ccc(C(C)(C)C)cc2)n1C(C)C | < 1000 nM
CC(C)n1cnnc1-c1ncc(Cl)cc1NS(=O)(=O)c1ccc(C(C)(C)C)cc1 | < 1000 nM
CC(C)(C)c1ccc(S(=O)(=O)Nc2cc(Cl)cnc2-c2nncn2-c2ccccc2)cc1 | < 1000 nM
CC(C)n1c(-c2ncc(Cl)cc2NS(=O)(=O)c2ccc(C(C)(C)C)cc2)nnc1C(C)(C)O | < 1000 nM
Cn1cnnc1-c1ncc(Cl)cc1NS(=O)(=O)c1ccc(C(C)(C)C)cc1 | < 1000 nM
CC(C)c1nnc(-c2ncc(Cl)cc2NS(=O)(=O)c2ccc(C(C)(C)C)cc2)n1C | < 1000 nM
CCn1c(COC)nnc1-c1ncc(Cl)cc1NS(=O)(=O)c1ccc(C(C)(C)C)cc1 | < 1000 nM
Cn1c(-c2ccncc2)nnc1-c1ncc(Cl)cc1NS(=O)(=O)c1ccc(C(C)(C)C)cc1 | < 1000 nM
CNC(=O)c1nnc(-c2ncc(Cl)cc2NS(=O)(=O)c2ccc(C(C)(C)C)cc2)n1C(C)C | < 1000 nM
CC(C)(C)c1ccc(S(=O)(=O)Nc2cc(Cl)cnc2-c2nncn2-c2ccccc2F)cc1 | < 1000 nM
CCn1cnnc1-c1ncc(Cl)cc1NS(=O)(=O)c1ccc(C(C)(C)C)cc1 | < 1000 nM
Cc1nnc(-c2ncc(Cl)cc2NS(=O)(=O)c2ccc(C(C)(C)C)cc2)n1C | < 1000 nM
Cn1c(-c2cccnc2)nnc1-c1ncc(Cl)cc1NS(=O)(=O)c1ccc(C(C)(C)C)cc1 | < 1000 nM
Cn1c(-c2ccno2)nnc1-c1ncc(Cl)cc1NS(=O)(=O)c1ccc(C(C)(C)C)cc1 | < 1000 nM
Cc1cnc(-c2nncn2C2CCN(C(=O)OC(C)(C)C)C2)c(NS(=O)(=O)c2ccc(C(C)(C)C)cc2)c1 (centres unmarked) | < 1000 nM
COCc1nnc(-c2ncc(Cl)cc2NS(=O)(=O)c2ccc(C(C)(C)C)cc2)n1C | < 1000 nM

Compound | IC50
CC(C)(C)c1ccc(S(=O)(=O)Nc2cc(Cl)cnc2-c2nncn2[C@H]2CCNC2)cc1 | < 1000 nM
CC(C)(C)c1ccc(S(=O)(=O)Nc2cc(Cl)cnc2-c2nncn2[C@H]2CCCNC2)cc1 | < 1000 nM
CCn1c(C)nnc1-c1ncc(Cl)cc1NS(=O)(=O)c1ccc(C(C)(C)C)cc1 | < 1000 nM
CC(C)n1c(C(=O)N(C)C)nnc1-c1ncc(Cl)cc1NS(=O)(=O)c1ccc(C(C)(C)C)cc1 | < 1000 nM
COCc1nnc(-c2ncc(Cl)cc2NS(=O)(=O)c2ccc(C(C)(C)C)cc2)n1C(C)C | < 1000 nM
Cc1nnc(-c2ncc(Cl)cc2NS(=O)(=O)c2ccc(C(C)(C)C)cc2)n1C1CC1 | < 1000 nM
Cn1c(-c2ncc(Cl)cc2NS(=O)(=O)c2ccc(C(C)(C)C)cc2)nnc1C1CCNCC1 | < 1000 nM
Cc1cnc(-c2nncn2C2CCNC2)c(NS(=O)(=O)c2ccc(C(C)(C)C)cc2)c1 (centres unmarked) | < 1000 nM
CC(C)(C)c1ccc(S(=O)(=O)Nc2cc(Cl)cnc2-c2nnc3n2CCOC3)cc1 | < 1000 nM
CC(C)(C)c1ccc(S(=O)(=O)Nc2cc(Cl)cnc2-c2nnc3n2CCNC3)cc1 | < 1000 nM
Cc1cnc(-c2nncn2C2CCN(C)C2)c(NS(=O)(=O)c2ccc(C(C)(C)C)cc2)c1 (centres unmarked) | < 1000 nM
COCc1nnc(-c2ncc(Cl)cc2NS(=O)(=O)c2ccc(C(C)(C)C)cc2)n1C1CCOCC1 | < 1000 nM
CC(C)n1c(N)nnc1-c1ncc(Cl)cc1NS(=O)(=O)c1ccc(C(C)(C)C)cc1 | < 1000 nM
CC(=O)Nc1nnc(-c2ncc(Cl)cc2NS(=O)(=O)c2ccc(C(C)(C)C)cc2)n1C(C)C | < 1000 nM
Cn1c(-c2ncc(Cl)cc2NS(=O)(=O)c2ccc(C(C)(C)C)cc2)nnc1C1CCCN1 (centres unmarked) | < 1000 nM
CCOC(=O)c1nnc(-c2ncc(Cl)cc2NS(=O)(=O)c2ccc(C(C)(C)C)cc2)n1C(C)C | < 1000 nM
